The values below come from patent US20260335398A1, “METHODS FOR TREATING PANCREATIC CANCER WITH A COMBINATION OF DES-METHYL PATEAMINE A AND A CLASS I HDAC INHIBITOR” (Baylor University, priority 2023, published 2026).

In one data set the test system is MIA PaCa-2 and KLM cells. As to the kind of experiment: RNA-seq gene expression analysis (FIG. 9A). The format is cell-based. As for the experimental part: Plots show a significant increase in the overall gene expression in the cells treated with the combination. Cells treated for a total of 18 h (i.e., 6-hour romidepsin followed by 12-hour incubation with 2 nM DMPatA (combo) or without (Romi alone)).
To gain further insight into the effects of the combination treatment gene expression was profiled in MIA PaCa-2 and KLM cells treated with vehicle, the single agents, or the combination for a total of 18 h (i.e., 6-hour romidepsin treatment followed by 12-hour washout with 2 nM DMPatA or without), probing whether alterations observed following combination treatment could be explained by changes in gene expression.
Total RNA was extracted using RNeasy mini kit (Qiagen) from cells collected after 18 hours (6 hours romidepsin (15 nM)+12 hours washout with or without DMPatA (2 nM)) incubation with or without drugs. RNA quantitation and quality were assessed by the Agilent Bioanalyzer 2100 at the Molecular Pathology Shared Resource of the Herbert Irving Comprehensive Cancer Center at Columbia University (mBank). RNA library preparation and sequencing was performed at Columbia University's Sulzberger Genome Center. Briefly, poly-A pull-down was used to enrich mRNAs from total RNA samples, followed by library construction using Illumina TruSeq chemistry. Libraries were then sequenced using Illumina NovaSeq 6000. For the DESeq2 (v 1.40.2) analysis the data were imported with tximport in DESeq2 and a dds object was generated. Variance stabilizing transformation was used on the object and the output was used for the heatmap and PCA plots. Abundance of transcripts was estimated by pseudoalignment using kallisto, and downstream analysis was performed using R (v4.3.1) and the indicated packages. […] Differentially expressed genes were determined using linear regression method (limma v3.56.2), and genes with |log 2FC|≥1 and adjusted p-value <0.05 were plotted accordingly on volcano plots and heatmap (ggplot2 v3.5.0 and ComplexHeatmap v2.16.0). […]

A further data set relates to H3K9ac. As to the kind of experiment: Immunohistochemistry of H3K9ac in MIA PaCa-2 xenograft tumor tissue (FIG. 2C). It counts as in vivo, athymic nude mice. The note with it: IHC, tumors at end of study. The source says: FIGS. 2A and 2B illustrate the results of a MIA PaCa-2 xenograft model of PDAC in male athymic nude mice. FIG. 2A compares tumor growth (mm^3) in mice treated with the indicated concentrations of combination, romidepsin and DMPatA using IP route and vehicles described in the materials and methods section below. FIG. 2B compares body weight (g) of mice treated with the combination and single agents following treatment. FIGS. 2C and 2D compare quantification of H3K9ac and c-MYC antibodies. Frozen sections from MIA PaCa-2 xenograft tumor tissues were subjected to immunohistochemical analysis using antibodies against H3K9ac, and c-MYC. Fluorescence images were captured using fluorescent microscopy and the fluorescent signal from H3K9ac and c-MYC antibodies were quantified. To quantify fluorescence intensity at least 500 cells per condition were measured for each antibody at 40× magnification. The median of the signal intensity is shown. Statistical significance was determined by one-way ANOVA using Tukey multiple comparisons test, ****p value<0.0001.
Additionally, snap-frozen tumor tissue samples from the mice treated with vehicle, single agents, and the combination were collected at the end of the study. These samples were sectioned, and the levels of H3K9ac and c-MYC proteins in tumor tissues were assessed by immunohistochemistry. […]

The conditions of data set [1]: patients, 4-hour infusion; cited from earlier work.
A further data set concerns p-RPA. Put plainly: Immunoblot of phospho-RPA2 (FIG. 11A). The format is cell-based. Conditions: total 24 h (romidepsin 6 h + 18 h with/without 2 nM DMPatA). As for the experimental part: FIG. 11A compares immunoblots of p-RPA and p-CHK1 protein levels from whole cell extracts following treatment with the combination and romidepsin for a total of 24 h (i.e., romidepsin treatment was for 6 h followed by 18-hour incubation with 2 nM DMPatA (combo) or without (Romi alone)).
Having observed R-loop accumulation following treatment with the combination, it was hypothesized that hypertranscription, persistent hyperacetylation, and R-loop accumulation could increase the incidence of transcription replication conflicts, genome instability, and DNA damage and contribute to cell death. […]
Western blotting was carried out as previously described (Luchenko V L, Litman T, Chakraborty A R, et al. 65. Membranes were probed with primary antibodies: Phospho-Histone H2A.X (Ser139) (1:1000, Millipore Sigma #05-636), GAPDH (1:10000, Abcam #ab8245), c-Myc (1:1000, Abcam #ab32072), β-Actin (1:1000, Cell Signaling Technology (CST), #8457), Phospho-RPA32/RPA2 (Ser33) (1:1000, Cell Signaling Technology #10148), Phospho-Chk1 (Ser345) (1:1000, CST #2341), and secondary antibodies IRDye® 680RD Goat anti-Mouse and IRDye® 800CW Goat anti-Rabbit (both from LI-COR Biosciences). Signal quantification was performed using the Odyssey CLx imaging system (LI-COR Biosciences), capturing various exposures within the linear range with ImageStudio software V3.1 (LI-COR Biosciences).

Molecules are shown by their SMILES.

For `C/C=C1\NC(=O)[C@H]2CSSCC/C=C/[C@H](CC(=O)N[C@H](C(C)C)C(=O)N2)OC(=O)[C@H](C(C)C)NC1=O` [romidepsin], the “change in gene expression” value in the data set with MIA PaCa-2 and KLM cells (romidepsin 15 nM 6 h, with or without DMPatA 2 nM) was “only a modest increase in gene expression”. For the same compound, in the data set on MIA PaCa-2 and KLM cells (total 18 h (6 h romidepsin 15 nM + 12 h with/without DMPatA 2 nM), |log2FC|≥1, adjusted p<0.05), the “number of differentially expressed genes (DEGs)” value was 1551 DEGs. Moreover, the “H3K9ac level in tumor” value with H3K9ac is on record as “increased significantly”. In addition, the half-life entry in data set [1] is given as “approximately 3.5 hour”. The phospho-RPA2 result in the data set with p-RPA was “Accumulation”.
